From PubChem BioAssay (NCI)
“And” between values parts separate entries of the source, which are not always exact repeats. Equal entries are not always repeated.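 Growth conditions: 96-well plates. Treatment: test compound, 48 hours, 5 concentrations. Analysis: linear interpolation between bracketing concentrations; unreached endpoints set to highest concentration. GI50 marks 50% less growth. The concentration for full growth arrest is given as TGI.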

Tests used:
Experiment in all cases: growth of human tumour cells (NCI), 48 h
SF-295 CNS = system: SF-295 CNS
MDA-MB-231 breast = system: MDA-MB-231 breast
OVCAR-5 ovarian = system: OVCAR-5 ovarian
ACHN renal = system: ACHN renal
T-47D breast = system: T-47D breast
RPMI-8226 leukemia = system: RPMI-8226 leukemia
DU-145 prostate = system: DU-145 prostate
SW-620 colon = system: SW-620 colon
SK-MEL-28 melanoma = system: SK-MEL-28 melanoma
SNB-19 CNS = system: SNB-19 CNS

| Structure (SMILES) | GI50 (SF-295 CNS) [µM] | TGI (SF-295 CNS) | GI50 (MDA-MB-231 breast) | TGI (MDA-MB-231 breast) | GI50 (OVCAR-5 ovarian) | TGI (OVCAR-5 ovarian) | GI50 (ACHN renal) | TGI (ACHN renal) | GI50 (T-47D breast) | TGI (T-47D breast) | GI50 (RPMI-8226 leukemia) [µM] | TGI (RPMI-8226 leukemia) [µM] | GI50 (DU-145 prostate) | TGI (DU-145 prostate) | GI50 (SW-620 colon) | TGI (SW-620 colon) | GI50 (SK-MEL-28 melanoma) | TGI (SK-MEL-28 melanoma) | GI50 (SNB-19 CNS) [µM] | TGI (SNB-19 CNS) [µM] |
| --- | --- | --- | --- | --- | --- | --- | --- | --- | --- | --- | --- | --- | --- | --- | --- | --- | --- | --- | --- | --- |
| CC(=O)c1cccc(N(/C=C/C(=O)C(F)(F)F)CC(=O)c2ccc(Cl)cc2)c1 | > 100 | > 100 µM | > 100 µM | > 100 µM | > 100 µM | > 100 µM | > 100 µM | > 100 µM | > 100 µM | > 100 µM | > 100 | > 100 | > 100 µM | > 100 µM | > 100 µM | > 100 µM | > 100 µM | > 100 µM |  |  |
| Cc1ccc(C(=O)/C(=C/c2ccc([N+](=O)[O-])cc2)S(=O)Cc2ccccc2)cc1 (stereo not given) | 2.45 | 5.96 µM | 1.19 µM | 2.77 µM | 1.69 µM | 3.61 µM | 1.56 µM | 2.92 µM |  |  | 0.404 | 2.35 | 1.34 µM | 2.69 µM | 0.916 µM | 2.94 µM | 1.66 µM | 3.15 µM | 1.55 | 3.07 |
| CC1(C)C(=O)C(O)=CC2C1=CCC1C2(C)C(=O)CC2(C)C(C(C)(O)C(=O)CC(O)C(C)(C)O)C(O)CC12C (stereo not given) |  | 13.1 µM |  |  |  | > 100 µM |  | 16.2 µM |  |  |  | 19.1 |  |  |  | > 50.7 µM |  | 7.43 µM |  | 12.7 |
| CC[N+]1(C)CCC(O)(c2ccc(C)cc2)C(C(=O)c2ccc(C)cc2)C1 (stereo not given) |  | > 100 µM |  | 62.3 µM |  | > 100 µM |  | 48 µM |  |  |  | 37.3 |  | > 100 µM |  | 39.3 µM |  |  |  | > 100 |
| COC(=O)C1=CCON(c2ccccc2)C1c1ccccc1 (stereo not given) |  |  |  |  |  | > 100 µM |  | > 100 µM |  |  |  | > 100 |  |  |  | > 100 µM |  | > 100 µM |  | > 100 |
| O=c1oc2ccccc2c(O)c1C=NC(=S)c1ccncc1 |  | > 100 µM |  | > 100 µM |  | > 100 µM |  | > 100 µM |  | > 100 µM |  |  |  | > 100 µM |  | > 100 µM |  | > 100 µM |  | > 100 |
| CC(C)N(C(C)C)[PH+]1O[PH+](N(C(C)C)C(C)C)O[PH+](N(C(C)C)C(C)C)O[PH+](N(C(C)C)C(C)C)O[PH+](N(C(C)C)C(C)C)O1.[C-]#[O+].[C-]#[O+].[C-]#[O+].[C-]#[O+].[C-]#[O+].[C-]#[O+].[C-]#[O+].[Cr].[Cr] (stereo not given) | > 100 | > 100 µM |  |  | > 100 µM | > 100 µM | > 100 µM | > 100 µM |  |  | > 100 | > 100 |  |  | > 100 µM | > 100 µM | > 100 µM | > 100 µM | > 100 | > 100 |
| COc1ccc(-n2nnc3c(sc4ccccc43)c2=O)cc1 |  |  |  |  |  |  |  |  |  |  | > 100 | > 100 | > 100 µM | > 100 µM | > 100 µM | > 100 µM | > 100 µM | > 100 µM |  |  |
| Cc1c(C)c2cc3c(=O)ccoc3c(C)c2oc1=O |  | > 100 µM |  |  |  | > 100 µM |  | > 100 µM |  |  |  | > 100 |  |  |  | > 100 µM |  | > 100 µM |  | > 100 |
| O=C(CCc1nc(=S)[nH][nH]1)NC12CC3CC(CC(C3)C1)C2 |  | > 100 µM |  |  |  | > 100 µM |  | > 100 µM |  |  |  |  |  |  |  | > 100 µM |  | > 100 µM |  | > 100 |
| CC(C)N(C(=O)C12C3C4C1C1C2C3C41C(O)C(C)(C)C)C(C)C (stereo not given) |  | > 50 µM |  |  |  |  |  | > 50 µM |  |  |  |  |  |  |  | > 50 µM |  | > 50 µM |  | > 50 |
| CC(C)c1cccc(C(C)C)c1NC(=O)C(=O)C(C(=O)c1ccccc1-c1ccccc1)C1OC(=O)c2ccccc21 (stereo not given) |  | 37.6 µM |  |  |  | 35.4 µM |  | > 100 µM |  |  |  | > 100 |  |  |  | 37.8 µM |  | 71.9 µM |  | 40.1 |
| CC(C)c1ccc2nc3ccc(C(=O)NCCN(C)C)cn3c(=O)c2c1 |  | 23.8 µM |  | 34.6 µM |  | 33.2 µM |  | 94.2 µM |  | 38.4 µM |  |  |  | > 100 µM |  | 28.6 µM |  | 32.4 µM |  | > 100 |
| COc1ccc(C2C(Cl)C(=O)N2n2cnc3ccccc3c2=O)cc1OC (stereo not given) |  | > 100 µM |  |  |  | > 100 µM |  | > 100 µM |  |  |  | > 100 |  |  |  | > 100 µM |  | > 100 µM |  | > 100 |
| Clc1ccc([O][In]([O]c2ccc(Cl)cn2)[O]c2ccc(Cl)cn2)nc1 | 25.2 | 47.5 µM |  |  | > 100 µM | > 100 µM |  |  |  |  |  |  |  |  | > 100 µM | > 100 µM | > 100 µM | > 100 µM | > 100 | > 100 |
| COC(=O)c1nc(NN)[nH]c(=O)c1CCCCCc1c(C(=O)OC)[nH]c(NN)cc1=O |  | > 100 µM |  |  |  | > 100 µM |  | > 100 µM |  |  |  | > 100 |  |  |  | > 100 µM |  | > 100 µM |  | > 100 |
| C=C(C)C1CC2C(C)=C(OC(C)=O)C1n1c(=O)c3cc4ccccc4cc3c(=O)n12 (stereo not given) |  | > 100 µM |  |  |  | > 100 µM |  | > 100 µM |  |  |  | > 81.3 |  |  |  | > 100 µM |  | > 100 µM |  | > 100 |
| O=C1c2ccccc2N2OC3(N4CCCC4)CCCC3C12c1ccccc1 (stereo not given) |  | > 100 µM |  |  |  |  |  | > 100 µM |  |  |  | > 100 |  |  |  | > 100 µM |  | > 100 µM |  | > 100 |
| COc1ccc(OC)c(-c2cc(-c3ccccc3)nn2-c2ccc(S(=O)(=O)NC(C)=O)cc2)c1 | 16.1 | 35.1 µM | 3.09 µM | 14.1 µM | 16.9 µM | 31.3 µM |  |  |  |  | 1.97 | 4.36 | 17.9 µM | 36.9 µM | 3.52 µM | 9.15 µM |  |  |  |  |
| Cc1cc(N(CCNc2ccnc3cc(Cl)ccc23)Cc2ccc3c(c2)OCO3)nc(N2CCN(C)CC2)n1 | 1.72 | 3.42 µM | 1.77 µM | 4.32 µM | 5.5 µM | 18.3 µM | 2.52 µM | 5.78 µM | 2.05 µM | 4.64 µM | 1.88 | 5.23 |  |  | 2.08 µM | 5.41 µM | 1.89 µM | 3.53 µM | 3.78 | 13 |
| CN1C2CC(C#N)C1C=CC2=O (stereo not given) |  | 19.1 µM and > 100 µM | 19.7 µM and > 100 µM | 40.7 µM and > 100 µM | 19.6 µM and > 100 µM | 37.3 µM and > 100 µM | 22.8 µM and > 100 µM | 76.9 µM and > 100 µM | 17.5 µM and > 100 µM | 45.1 µM and > 100 µM |  |  | 22.8 µM and 58.9 µM | 61.1 µM and > 100 µM | 15.1 µM and 72.5 µM | 43.7 µM and > 100 µM | 17.8 µM and > 100 µM | 36.7 µM and > 100 µM |  | > 100 |
